US9840498B2, “Substituted quinazolin-4-one derivatives” (NOVARTIS AG, priority 2013, dated 2017)

What follows are compounds tested against PI3K gamma (Homo sapiens (Human), UniProt P48736) (assay: Biochemical assay for PI3Kgamma (Adapta TR-FRET format)). Details: enzymatic assay.
Sequence of PI3K gamma (P48736 whole entry): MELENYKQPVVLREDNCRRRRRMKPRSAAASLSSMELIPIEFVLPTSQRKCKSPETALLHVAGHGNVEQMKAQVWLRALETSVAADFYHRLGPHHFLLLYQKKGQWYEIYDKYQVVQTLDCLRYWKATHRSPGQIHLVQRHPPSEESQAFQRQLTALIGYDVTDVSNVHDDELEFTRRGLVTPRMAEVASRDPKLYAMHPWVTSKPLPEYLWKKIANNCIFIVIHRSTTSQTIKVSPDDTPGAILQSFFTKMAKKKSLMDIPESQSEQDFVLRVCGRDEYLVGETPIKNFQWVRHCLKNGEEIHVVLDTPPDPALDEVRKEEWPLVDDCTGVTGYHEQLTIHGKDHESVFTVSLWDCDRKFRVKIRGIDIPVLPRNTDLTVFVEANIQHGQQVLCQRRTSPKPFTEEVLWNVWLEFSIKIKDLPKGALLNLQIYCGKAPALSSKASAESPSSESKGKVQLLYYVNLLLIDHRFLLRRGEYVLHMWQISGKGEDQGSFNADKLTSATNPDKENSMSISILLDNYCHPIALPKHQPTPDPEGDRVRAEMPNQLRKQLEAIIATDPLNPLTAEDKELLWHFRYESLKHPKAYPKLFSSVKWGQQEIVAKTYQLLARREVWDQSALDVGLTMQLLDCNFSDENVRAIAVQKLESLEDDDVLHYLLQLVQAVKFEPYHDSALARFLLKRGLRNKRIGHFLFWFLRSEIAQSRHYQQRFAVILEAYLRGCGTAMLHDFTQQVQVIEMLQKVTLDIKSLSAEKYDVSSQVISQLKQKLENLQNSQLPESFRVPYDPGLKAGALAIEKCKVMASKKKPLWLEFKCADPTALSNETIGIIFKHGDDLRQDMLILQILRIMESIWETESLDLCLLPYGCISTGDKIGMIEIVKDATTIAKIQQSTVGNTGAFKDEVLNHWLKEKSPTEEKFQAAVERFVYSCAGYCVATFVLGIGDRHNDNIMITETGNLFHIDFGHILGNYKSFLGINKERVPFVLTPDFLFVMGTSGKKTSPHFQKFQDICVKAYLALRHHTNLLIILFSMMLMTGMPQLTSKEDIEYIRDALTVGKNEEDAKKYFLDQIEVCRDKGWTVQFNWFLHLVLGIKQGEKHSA
Description: For the enzymatic assays, the preparation of PI3K gene constructs, protein expression and purification for HTS are described in WO2012/004299. […] The TR-FRET Adapta™ Universal Kinase Assay Kit was purchased from Invitrogen Corporation (Carlsbad/CA, USA) (Cat. No. PV5099). The kit contains the following reagents: Adapta Eu-anti-ADP Antibody (Europium labeled anti-ADP antibody in HEPES buffered saline, Cat. No. PV5097), Alexa Fluor® 647-labeled ADP tracer (Alexa Fluor® 647-labeled ADP tracer in HEPES buffered saline, Cat. No. PV5098), proprietary TR-FRET dilution buffer pH 7.5 (Cat. No. PV3574). PIK3CD substrate Phosphatidylinositol was obtained from Invitrogen (vesicules consisting of 2 mM PI in 50 mM HEPES pH7.5; Cat. No. PV5371). PIK3CG substrate Phosphatidylinositol-4,5-bisphosphate (PIP(4,5)2 was obtained from Invitrogen (PIP2:PS large unilamellar vesicules consisting of 1 mM PI P2: 19 mM PS in 50 mM HEPES pH7.5, 3 mM MgCl2, 1 mM EGTA; Cat. No. PV5100). Time-Resolved Fluorescence Resonance Energy Transfer (TR-FRET) is a technology based on energy transfer between two adjacent dyes, from an excited electron in one dye (the donor) to an electron of an adjacent dye (the acceptor) through resonance, then released as a photon. This energy transfer is detected by an increase in the fluorescence emission of the acceptor, and a decrease in the fluorescence emission of the donor. TR-FRET assays for protein kinases use a long-lifetime lanthanide Terbium or Europium chelates as the donor species which overcome interference from compound autofluorescence or light scatter from precipitated compounds, by introducing a delay after excitation by a flashlamp excitation source. Results are often expressed as a ratio of the intensities of the acceptor and donor fluorophores. The ratiometric nature of such a value corrects for differences in assay volumes between wells, as well as corrects for quenching effects due to colored compounds. The Adapta™ assay can be divided into two phases: a kinase reaction phase and an ADP detection phase. In the kinase reaction phase, all kinase reaction components are added to the well and the reaction is allowed to incubate for a set period of time specific for each kinase. After the reaction, a detection solution of Eu-labeled anti-ADP antibody, Alexa Fluor® 647-labeled ADP tracer, and EDTA (to stop the kinase reaction) are added to the assay well. ADP formed by the kinase reaction will displace the Alexa Fluor® 647-labeled ADP tracer from the antibody, resulting in a decrease in TR-FRET signal. In the presence of an inhibitor, the amount of ADP formed by the kinase reaction is reduced, and the resulting intact antibody-tracer interaction maintains a high TR-FRET signal. In the Adapta™ assay, the donor (Europium-anti-ADP antibody) is excited at 340 nm and will transfer its energy to the acceptor (Alexa Fluor® 647-labeled ADP tracer). The emission from the Alexa Fluor® 647 can be monitored with a filter centered at 665 nm because it is located between the emission peaks of the donor, which is measured at 615/620 nm. 50 nL of compound dilutions were dispensed onto white 384-well small volume polystyrene plate as described in section 2.2. Then 5 μL of PI3Kgamma and PI3Kdelta and lipid substrate (PI or PIP2:PS) followed by 5 μL of ATP (final assay volume 10 μL) are incubated at RT. […] Reactions were stopped with 5 μL of a mixture of EDTA containing the Eu-labeled anti-ADP antibody and the Alexa Fluor® 647-labeled ADP tracer in TR-FRET dilution buffer (proprietary to IVG). Plates are read 15 to 60 mins later in a Synergy2 reader using an integration time of 0.4 seconds and a delay of 0.05 seconds. […] The control for the 0% inhibition was given by the solvent vehicle of the compounds (90% DMSO in H2O). Data are analyzed using Excel fit software or Graphpad Prism. EC50 values were derived by fitting a sigmoidal dose-response curve to a plot of assay readout over inhibitor concentration. […]
In the case of `Cc1nc(N)nc(N2C[C@@H](O)C[C@H]2c2nc3ccc(F)c(-c4cnn(C)c4)c3c(=O)n2-c2ccccc2)c1C#N` [Example 1, 2-Amino-4-((2S,4S)-2-(6-fluoro-5-(1-methyl-1H-pyrazol-4-yl)-4-oxo-3-phenyl-3,4-dihydroquinazolin-2-yl)-4-hydroxypyrrolidin-1-yl)-6-methylpyrimidine-5-carbonitrile], the IC50 is reported as 28 nM.
With `Cn1cc(-c2cccc3nc([C@@H]4CCCN4c4ncnc(N)c4C#N)n(-c4ccccc4)c(=O)c23)cn1` [Example 2, (S)-4-Amino-6-(2-(5-(1-methyl-1H-pyrazol-4-yl)-4-oxo-3-phenyl-3,4-dihydroquinazolin-2-yl)pyrrolidin-1-yl)pyrimidine-5-carbonitrile] the IC50 was 150 nM.
`COc1ncc(-c2cccc3nc([C@@H]4CCCN4c4ncnc(N)c4C#N)n(-c4ccccc4)c(=O)c23)cn1` [Example 3, (S)-4-Amino-6-(2-(5-(2-methoxypyrimidin-5-yl)-4-oxo-3-phenyl-3,4-dihydroquinazolin-2-yl)pyrrolidin-1-yl)pyrimidine-5-carbonitrile] showed an IC50 of 1200 nM.
Compound `COc1ncc(-c2cccc3nc([C@@H]4CCCN4c4nc(N)nc(C)c4C#N)n(-c4ccccc4)c(=O)c23)cn1` [Example 4, (S)-2-Amino-4-(2-(5-(2-methoxypyrimidin-5-yl)-4-oxo-3-phenyl-3,4-dihydroquinazolin-2-yl)pyrrolidin-1-yl)-6-methylpyrimidine-5-carbonitrile] has an IC50 of 82 nM.
`Cn1cc(-c2c(F)ccc3nc([C@@H]4CCCN4c4ncnc(N)c4C#N)n(-c4ccccc4)c(=O)c23)cn1` [Example 5, (S)-4-Amino-6-(2-(6-fluoro-5-(1-methyl-1H-pyrazol-4-yl)-4-oxo-3-phenyl-3,4-dihydroquinazolin-2-yl)pyrrolidin-1-yl)pyrimidine-5-carbonitrile] showed an IC50 of 85 nM.
`Cc1nc(N)nc(N2CCC[C@H]2c2nc3ccc(F)c(-c4cnn(C)c4)c3c(=O)n2-c2ccccc2)c1C#N` [Example 6, (S)-2-Amino-4-(2-(6-fluoro-5-(1-methyl-1H-pyrazol-4-yl)-4-oxo-3-phenyl-3,4-dihydroquinazolin-2-yl)pyrrolidin-1-yl)-6-methylpyrimidine-5-carbonitrile] gave an IC50 of 56 nM.
In the case of `COc1ncc(-c2c(F)ccc3nc([C@@H]4C[C@H](O)CN4c4nc(N)nc(C)c4C#N)n(-c4ccccc4)c(=O)c23)cn1` [Example 7, 2-Amino-4-((2S,4S)-2-(6-fluoro-5-(2-methoxypyrimidin-5-yl)-4-oxo-3-phenyl-3,4-dihydroquinazolin-2-yl)-4-hydroxypyrrolidin-1-yl)-6-methylpyrimidine-5-carbonitrile], the IC50 is reported as 110 nM.
`Cn1cc(-c2c(F)ccc3nc([C@@H]4C[C@H](O)CN4c4ncnc(N)c4C#N)n(-c4ccccc4)c(=O)c23)cn1` [Example 8, 4-Amino-6-((2S,4S)-2-(6-fluoro-5-(1-methyl-1H-pyrazol-4-yl)-4-oxo-3-phenyl-3,4-dihydroquinazolin-2-yl)-4-hydroxypyrrolidin-1-yl) pyrimidine-5-carbonitrile] was tested, and the IC50 was 750 nM.
`COc1ncc(-c2c(F)ccc3nc([C@@H]4C[C@H](O)CN4c4nc(N)nc(C)c4C#N)n(-c4ccccc4)c(=O)c23)s1` [Example 9, 2-Amino-4-((2S,4S)-2-(6-fluoro-5-(2-methoxythiazol-5-yl)-4-oxo-3-phenyl-3,4-dihydroquinazolin-2-yl)-4-hydroxypyrrolidin-1-yl)-6-methylpyrimidine-5-carbonitrile] showed an IC50 of 18 nM.
`CO[C@H]1C[C@@H](c2nc3cccc(-c4cnn(C)c4)c3c(=O)n2-c2ccccc2)N(c2nc(N)nc(C)c2C#N)C1` [Example 10, 2-Amino-4-((2S,4S)-4-methoxy-2-(5-(1-methyl-1H-pyrazol-4-yl)-4-oxo-3-phenyl-3,4-dihydroquinazolin-2-yl)pyrrolidin-1-yl)-6-methylpyrimidine-5-carbonitrile] gave an IC50 of 38 nM.
Work on `CO[C@H]1C[C@@H](c2nc3cccc(-c4cnn(C)c4)c3c(=O)n2-c2ccccc2)N(c2nc(N)nc3[nH]cnc23)C1` [Example 11, 2-((2S,4S)-1-(2-Amino-9H-purin-6-yl)-4-methoxypyrrolidin-2-yl)-5-(1-methyl-1H-pyrazol-4-yl)-3-phenylquinazolin-4(3H)-one] yielded an IC50 of 230 nM.
Compound `COc1ncc(-c2cccc3nc([C@@H]4C[C@H](OC)CN4c4nc(N)nc(C)c4C#N)n(-c4ccccc4)c(=O)c23)cn1` [Example 12, 2-Amino-4-((2S,4S)-4-methoxy-2-(5-(2-methoxypyrimidin-5-yl)-4-oxo-3-phenyl-3,4-dihydroquinazolin-2-yl)pyrrolidin-1-yl)-6-methylpyrimidine-5-carbonitrile] has an IC50 of 210 nM.
`Cc1nc(N)nc(N2CCC[C@H]2c2nc3cccc(-c4cnn(C)c4)c3c(=O)n2-c2ccccc2)c1C#N` [Example 13, (S)-2-Amino-4-methyl-6-(2-(5-(1-methyl-1H-pyrazol-4-yl)-4-oxo-3-phenyl-3,4-dihydroquinazolin-2-yl)pyrrolidin-1-yl)pyrimidine-5-carbonitrile] showed an IC50 of 120 nM.
With `Cc1ccccc1-n1c([C@@H]2CCCN2c2ncnc(N)c2C#N)nc2cccc(-c3cnn(C)c3)c2c1=O` [Example 14, (S)-4-Amino-6-(2-(5-(1-methyl-1H-pyrazol-4-yl)-4-oxo-3-(otolyl)-3,4-dihydroquinazolin-2-yl)pyrrolidin-1-yl)pyrimidine-5-carbonitrile] the IC50 was 330 nM.
In the case of `Cn1cnc(-c2cccc3nc([C@@H]4CCCN4c4ncnc(N)c4C#N)n(-c4ccccc4)c(=O)c23)c1` [Example 15, (S)-4-Amino-6-(2-(5-(1-methyl-1H-imidazol-4-yl)-4-oxo-3-phenyl-3,4-dihydroquinazolin-2-yl)pyrrolidin-1-yl)pyrimidine-5-carbonitrile], the IC50 is reported as greater than 10000 nM.
With `Cc1nc(N)nc(N2C[C@@H](O)C[C@H]2c2nc3cccc(-c4cnn(C)c4)c3c(=O)n2-c2ccccc2)c1C#N` [Example 16, 2-Amino-4-((2S,4S)-4-hydroxy-2-(5-(1-methyl-1H-pyrazol-4-yl)-4-oxo-3-phenyl-3,4-dihydroquinazolin-2-yl)pyrrolidin-1-yl)-6-methylpyrimidine-5-carbonitrile] the IC50 was 48 nM.
With `Cc1nc(N)nc(N2CCC[C@H]2c2nc3cccc(-c4cncnc4)c3c(=O)n2-c2ccccc2)c1C#N` [Example 17, (S)-2-Amino-4-methyl-6-(2-(4-oxo-3-phenyl-5-(pyrimidin-5-yl)-3,4-dihydroquinazolin-2-yl)pyrrolidin-1-yl)pyrimidine-5-carbonitrile] the IC50 was 940 nM.
`COc1cncc(-c2cccc3nc([C@@H]4CCCN4c4nc(N)nc(C)c4C#N)n(-c4ccccc4)c(=O)c23)c1` [Example 18, (S)-2-Amino-4-(2-(5-(5-methoxypyridin-3-yl)-4-oxo-3-phenyl-3,4-dihydroquinazolin-2-yl)pyrrolidin-1-yl)-6-methylpyrimidine-5-carbonitrile] showed an IC50 of 89 nM.
Work on `Cc1ncc(-c2cccc3nc([C@@H]4CCCN4c4nc(N)nc(C)c4C#N)n(-c4ccccc4)c(=O)c23)cn1` [Example 19, (S)-2-Amino-4-methyl-6-(2-(5-(2-methylpyrimidin-5-yl)-4-oxo-3-phenyl-3,4-dihydroquinazolin-2-yl)pyrrolidin-1-yl)pyrimidine-5-carbonitrile] yielded an IC50 of 390 nM.
`Cc1nc(N)nc(N2CCC[C@H]2c2nc3cccc(-c4cccnc4)c3c(=O)n2-c2ccccc2)c1C#N` [Example 20, (S)-2-Amino-4-methyl-6-(2-(4-oxo-3-phenyl-5-(pyridin-3-yl)-3,4-dihydroquinazolin-2-yl)pyrrolidin-1-yl)pyrimidine-5-carbonitrile] gave an IC50 of 140 nM.
